Patent US6344477B1, “Prostaglandin e agonists for treatment of dry eye” (Alcon Manufacturing, Ltd., priority 1998, dated 2002)

How the values were obtained:
[1] = target: T1, EP4 Receptors in Chinese Hamster Ovary Cells (Cricetulus griseus, UniProt A0A061ILF4); assay: cAMP production (radioimmunoassay) via EP4 receptors in Chinese hamster ovary cells; type: cell-based; settings: 15-60 min at 23° C.; for EC50: read-out: Potency (EC50, nM) at EP4 Receptors in Chinese Hamster Ovary Cells
T1 construct: Chinese hamster ovary cells (containing EP4 receptors); endogenous in cells; host or cells: Chinese hamster ovary cells
T1 sequence (A0A061ILF4 1-488): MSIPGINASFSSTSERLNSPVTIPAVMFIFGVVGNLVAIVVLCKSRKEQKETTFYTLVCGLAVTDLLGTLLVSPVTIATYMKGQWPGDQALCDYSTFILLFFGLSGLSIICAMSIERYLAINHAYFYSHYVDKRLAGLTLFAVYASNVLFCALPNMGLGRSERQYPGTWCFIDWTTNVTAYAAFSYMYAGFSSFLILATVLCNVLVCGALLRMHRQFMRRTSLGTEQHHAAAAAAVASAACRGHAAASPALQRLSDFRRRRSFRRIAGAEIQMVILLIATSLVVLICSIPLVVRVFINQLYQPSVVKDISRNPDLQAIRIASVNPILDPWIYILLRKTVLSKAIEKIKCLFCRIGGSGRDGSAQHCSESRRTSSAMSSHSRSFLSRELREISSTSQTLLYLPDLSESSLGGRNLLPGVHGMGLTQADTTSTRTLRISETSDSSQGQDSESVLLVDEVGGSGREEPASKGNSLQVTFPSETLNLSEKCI
Procedure: (§1) Immortalized human non-pigmented ciliary epithelial cells (containing EP2 receptors) and Chinese hamster ovary cells (containing EP4 receptors) were stimulated with various prostaglandins for 15-60 min at 23° C. The cAMP produced by receptor activation was determined by a specific radioimmunoassay as previously described (Sharif et. al., Pharmacological analysis of mast cell mediator and neurotransmitter receptors coupled to adenylate cyclase and phospholipase C on immunocytochemically-defined human conjunctival epithelial cells, J. Ocular Pharmacology & Therapeutics, 13:321-336 (1997); Crider et. al., Prostaglandin-stimulated adenylyl cyclase activity via a pharmacologically-defined EP2 receptor in human non-pigmented epithelial cells, J. Ocular Pharmacology & Therapeutics, 14:293-304 (1998); Crider et. al., Use of a semi-automated, robotic radioimmunoassay to measure cAMP generated by activation of DP-, EP2- and IP-prostaglandin receptors in human ocular and other cell-types, Prostaglandins, Leukotrienes & Fatty Acids, 59:77-82 (1998); Milne et. al., Human monocytes and cultured Chinese hamster ovary cells express EP4 receptors positively coupled to adenylate cyclase, Br. J. Pharmacology, 113 (supplement), 8p, (1994)).

[2] = target: T2, EP2 Receptors in Immortalized Human Non-pigmented Ciliary Epithelial Cells (Homo sapiens, UniProt P43116); assay: cAMP production (radioimmunoassay) via EP2 receptors in immortalized human non-pigmented ciliary epithelial cells; type: cell-based; settings: for EC50: cAMP production, 15-60 min at 23° C., read-out: Potency (EC50, nM) at EP2 Receptors in Immortalized Human Non-pigmented Ciliary Epithelial Cells
T2 construct: Immortalized human non-pigmented ciliary epithelial cells (containing EP2 receptors); endogenous in cells; host or cells: immortalized human non-pigmented ciliary epithelial cells
T2 sequence (P43116 whole entry): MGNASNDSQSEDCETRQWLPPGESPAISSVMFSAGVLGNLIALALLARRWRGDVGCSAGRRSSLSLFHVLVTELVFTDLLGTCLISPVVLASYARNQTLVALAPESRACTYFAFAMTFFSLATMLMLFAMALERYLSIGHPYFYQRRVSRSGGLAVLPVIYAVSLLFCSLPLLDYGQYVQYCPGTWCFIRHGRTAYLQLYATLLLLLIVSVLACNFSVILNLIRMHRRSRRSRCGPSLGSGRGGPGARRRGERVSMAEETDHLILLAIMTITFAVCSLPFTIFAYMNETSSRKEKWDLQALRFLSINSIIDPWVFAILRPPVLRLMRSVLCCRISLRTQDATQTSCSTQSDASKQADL
Procedure: as §1

EC50 [1] [nM] | Efficacy at EP4 Receptors in Chinese Hamster Ovary Cells [1] [%] | SMILES | EC50 [2] [nM] | Receptor selectivity EP2 versus EP4 ([2]; comparison of EC50 at EP2 and EP4 receptors)
31 |  | CCCCC(C)(C)[C@H](O)/C=C/[C@H]1[C@H](O)CC(=O)[C@@H]1C/C=C\CCCC(=O)O [16,16-dimethyl-PGE2] | 686 | 
> 10000 |  | CCCC1([C@H](O)C/C=C/[C@H]2[C@H](O)CC(=O)[C@@H]2CCCCCCC(=O)OC)CCC1 [Butaprost, reference compound] | 212 | more EP2-selective
38 | 86 | CCCCC[C@H](O)/C=C/[C@H]1CCC(=O)[C@@H]1CCCCCCC(=O)O [11-deoxy-PGE1] | 500 | 
176 |  | CCCCC(C)(C)[C@H](O)/C=C/[C@H]1CCC(=O)[C@@H]1C/C=C\CCCC(=O)O [11-deoxy-16,16-dimethyl-PGE2, 11-deoxy-16,16,-dimethyl-PGE2] | 739 | 
